Results reported in patent publication US9371322B2, “Bicyclic aza-amides for treatment of psychiatric disorders” (MAX-PLANCK-GESELLSCHAFT ZUR FÖRDERUNG DER WISSENSCHAFTEN …, priority 2012, dated 2016).

Columns and labels:
FKBP51 = biological target: T1, FKBP51 (Homo sapiens, UniProt Q13451); assay: Competitive fluorescence polarization assay, binding to FKBP51; settings: for Ki: fluorescence polarization, FKBP51FK1, fluorescent tracer 20 nM final, 30 min room temperature; for FKBP51 ligand efficiency (LE): LE=(ΔG)/N, ΔG=−RTlnKi, RT=0.6, N non-hydrogen atoms
T1 construct: 400 nM FKBP51FK1, 1600 nM FKBP52FK1
T1 sequence (Q13451 42-130 limits assumed): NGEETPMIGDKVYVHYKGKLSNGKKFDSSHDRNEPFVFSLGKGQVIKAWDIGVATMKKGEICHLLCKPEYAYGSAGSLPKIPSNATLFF
Method: (§1) Binding of the bicyclic compounds to FKBPs was measured using a competitive fluorescence polarization
(§2) The compound library ligand was dissolved in DMSO to reach a 100-times concentrated stock solution. This was used for a 1:1 serial dilution in DMSO. […] For FKBP12, -51FK1 and -52FK1 the binding assays were performed in duplicates in the plate format. The competition curves were analyzed by using SigmaPlot11. Data were fitted to a four parameter logistic curve to deduce the IC50 values.

FKBP12 = FKBP12 (Homo sapiens, UniProt P62942); assay: Competitive fluorescence polarization assay, binding to FKBP12; settings: for FKBP12 ligand efficiency (LE): LE=(ΔG)/N, ΔG=−RTlnKi, RT=0.6, N non-hydrogen atoms; for Ki: fluorescence polarization, fluorescent tracer 20 nM final, 30 min room temperature
Sequence of FKBP12 (P62942 whole entry): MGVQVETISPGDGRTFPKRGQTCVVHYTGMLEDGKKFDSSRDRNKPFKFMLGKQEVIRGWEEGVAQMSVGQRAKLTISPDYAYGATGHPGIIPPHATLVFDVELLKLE
Method: as §1, §2

FKBP52 = biological target: T2, FKBP52 (Homo sapiens, UniProt Q02790); assay: Competitive fluorescence polarization assay, binding to FKBP52; settings: for Ki: fluorescence polarization, FKBP52FK1, fluorescent tracer 20 nM final, 30 min room temperature; for FKBP52 ligand efficiency (LE): LE=(ΔG)/N, ΔG=−RTlnKi, RT=0.6, N non-hydrogen atoms
T2 construct: 400 nM FKBP51FK1, 1600 nM FKBP52FK1
T2 sequence (Q02790 50-138 limits assumed): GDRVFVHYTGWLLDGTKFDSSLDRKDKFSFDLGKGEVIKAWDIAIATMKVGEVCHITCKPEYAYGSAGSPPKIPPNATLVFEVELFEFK
Method: as §1, §2

SMILES | Ki (FKBP51) | FKBP12 ligand efficiency (LE) (FKBP12) | Ki (FKBP12) | Ki (FKBP52) | FKBP51 ligand efficiency (LE) (FKBP51) | FKBP52 ligand efficiency (LE) (FKBP52)
COc1ccc(CCN2CCC3CCCC(C2=O)N3C(=O)C(=O)c2cc(OC)c(OC)c(OC)c2)cc1OC (centres unmarked) [Compound 5h, 1-(3-(3,4-dimethoxyphenethyl)-2-oxo-3,10-diazabicyclo[4.3.1]-decan-10-yl)-2-(3,4,5-trimethoxyphenyl)ethane-1,2-dione, reference compound] | > 100000 nM | 0.21 | 1500 ± 40 nM | > 100000 nM |  | 
C=C[C@H]1CN(CCOc2ccc(OC)c(OC)c2)C(=O)[C@@H]2CCC[C@H]1N2S(=O)(=O)c1cc(Cl)cc(Cl)c1 [Compound 5k, (1S,5S,6R)-10-(3,5-dichlorophenylsulfonyl)-3-(2-(3,4-dimethoxyphenoxyl)ethyl)-5-vinyl-3,10-diazabicyclo[4.3.1]decan-2-one] | 2100 ± 400 nM |  |  |  |  | 
COc1ccc(OCCN2CCC3CCCC(C2=O)N3S(=O)(=O)c2ccc3ncsc3c2)cc1OC (centres unmarked) [Compound 5c, 10-(benzo[d]thiazol-6-ylsulfonyl)-3-(2-(3,4-dimethoxyphenoxyl)ethyl)-3,10-diazabicyclo[4.3.1]decan-2-one] | 2100 ± 200 nM | 0.29 | 30 ± 7 nM | 3600 ± 500 nM | 0.22 | 0.21
CCN1CC2CCCC(C1=O)N2C(=O)C(=O)c1cc(OC)c(OC)c(OC)c1 (centres unmarked) [Compound 4g, 1-(3-ethyl-2-oxo-3,9-diazabicyclo[3.3.1]nonan-9-yl)-2-(3,4,5-trimethoxyphenyl)ethane-1,2-dione, reference compound] |  | 0.26 | 6300 ± 20 nM | > 100000 nM |  | 
COc1ccc(OCCN2CC3CCCC(C2=O)N3S(=O)(=O)c2ccc3ncsc3c2)cc1OC (centres unmarked) [Compound 4c, 9-(benzo[d]thiazol-6-ylsulfonyl)-3-(2-(3,4-dimethoxyphenoxyl)ethyl)-3,9-diazabicyclo[3.3.1]nonan-2-one] | 64800 ± 12300 nM | 0.24 | 900 ± 2000 nM |  | 0.17 | 
COc1ccc(OCCN2CC3CCCC(C2=O)N3C(=O)C(=O)c2cc(OC)c(OC)c(OC)c2)cc1OC (centres unmarked) [Compound 4a, 1-(3-(2-(3,4-dimethoxyphenoxyl)ethyl)-2-oxo-3,9-diazabicyclo[3.3.1]nonan-9-yl)-2-(3,4,5-trimethoxyphenyl)ethane-1,2-dione, reference compound] | 51100 ± 7600 nM | 0.24 | 200 ± 10 nM | 79400 ± 20000 nM | 0.15 | 0.15
COc1ccc(OCCN2CC3CCCC(C2=O)N3S(=O)(=O)c2ccc3[nH]c(=O)sc3c2)cc1OC (centres unmarked) [Compound 4d, 6-(3-(2-(3,4-dimethoxyphenoxyl)ethyl)-2-oxo-3,9-diazabicyclo[3.3.1]nonan-9-ylsulfonyl)benzo[d]thiazol-2(3H)-one] | 13900 ± 900 nM | 0.28 | 70 ± 0.4 nM |  | 0.19 | 
COc1ccc(OCCN2CCC3CCCC(C2=O)N3S(=O)(=O)c2cc(Cl)cc(Cl)c2)cc1OC (centres unmarked) [Compound 5b, 10-(3,5-dichlorophenylsulfonyl)-3-(2-(3,4-dimethoxyphenoxy)ethyl)-3,10-diazabicyclo[4.3.1]decan-2-one] | 1200 ± 200 nM | 0.32 | 10 ± 2 nM | 1600 ± 300 nM | 0.23 | 0.23
O=C1NCCC2CCCC1N2S(=O)(=O)c1ccc2[nH]c(=O)sc2c1 (centres unmarked) [Compound 5e, 6-(2-oxo-3,10-diazabicyclo[4.3.1]decan-10-ylsulfonyl)benzo[d]thiazol-2(3H)-one] | 9800 ± 500 nM | 0.41 | 60 ± 2 nM | 22600 ± 1000 nM | 0.29 | 0.27
COc1ccc(OCCOC(=O)C2CCCCN2C(=O)C(=O)c2cc(OC)c(OC)c(OC)c2)cc1OC (centres unmarked) [Compound 3a, 2-(3,4-dimethoxyphenoxyl)ethyl 1-(2-oxo-2-(3,4,5-trimethoxy-phenyl)acetyl)piperidine-2-carboxylate, reference compound] |  | 0.22 | 300 ± 30 nM | > 100000 nM |  | 
CCC(C)(C)C(=O)C(=O)N1C2CCCC1C(=O)N(CCOc1ccc(OC)c(OC)c1)CC2 (centres unmarked) [Compound 5f, 1-(3-(2-(3,4-dimethoxyphenoxyl)ethyl)-2-oxo-3,10-diazabicyclo-[4.3.1]decan-10-yl)-3,3-dimethylpentane-1,2-dione, reference compound] | > 100000 nM | 0.24 | 1500 ± 100 nM | > 100000 nM |  | 
COc1ccc(OCCN2CCC3CCCC(C2=O)N3S(=O)(=O)c2cc(Cl)c(O)c(Cl)c2)cc1OC (centres unmarked) [Compound 5i, 10-(3,5-dichloro-4-hydroxyphenylsulfonyl)-3-(2-(3,4-dimethoxyphenoxyl)ethyl)-3,10-diazabicyclo[4.3.1]decan-2-one] | 1000 ± 100 nM | 0.24 | 400 ± 40 nM | 3500 ± 400 nM | 0.23 | 0.21
C=CC[C@@H]1/C=C(\C)C[C@H](C)C[C@H](OC)[C@H]2O[C@@](O)(C(=O)C(=O)N3CCCC[C@H]3C(=O)O[C@H](/C(C)=C/[C@@H]3CC[C@@H](O)[C@H](OC)C3)[C@H](C)[C@@H](O)CC1=O)[C@H](C)C[C@@H]2OC [FK 506, FK506, reference compound] | 28 ± 5 nM |  |  |  |  | 
COc1ccc(OCCN2CC3CCCC(C2=O)N3S(=O)(=O)c2cc(Cl)cc(Cl)c2)cc1OC (centres unmarked) [Compound 4b, 9-(3,5-dichlorophenylsulfonyl)-3-(2-(3,4-dimethoxyphenoxyl)ethyl)-3,9-diazabicyclo[3.3.1]nonan-2-one] | 8800 ± 1100 nM | 0.28 | 140 ± 10 nM | 12200 ± 3700 nM | 0.21 | 0.20
CCOC(=O)C1CCCCN1S(=O)(=O)c1ccc2[nH]c(=O)sc2c1 (centres unmarked) [Compound 3d, ethyl 1-(2-oxo-2,3-dihydrobenzo[d]thiazol-6-ylsulfonyl)piperidine-2-carboxylate, reference compound] |  | 0.38 | 200 ± 4 nM | > 100000 nM |  | 
O=C1NCC2CCCC1N2S(=O)(=O)c1ccc2[nH]c(=O)sc2c1 (centres unmarked) [Compound 4e, 6-(2-oxo-3,9-diazabicyclo[3.3.1]nonan-9-ylsulfonyl)benzo[d]thiazol-2(3H)-one] | 27000 ± 1700 nM | 0.42 | 100 ± 0.5 nM | 46400 ± 3800 nM | 0.27 | 0.26
COc1ccc(OCCOC(=O)C2CCCCN2S(=O)(=O)c2cc(Cl)cc(Cl)c2)cc1OC (centres unmarked) [Compound 3b, 2-(3,4-dimethoxyphenoxyl)ethyl 1-(3,5-dichlorophenyisulfonyl)-piperidine-2-carboxylate, reference compound] |  | 0.27 | 400 ± 6 nM | > 100000 nM |  | 
O=C1C2CCCC(CN1c1ccccc1)N2S(=O)(=O)c1ccc(Cl)cc1 (centres unmarked) [Compound 4h] | > 100000 nM |  |  | > 100000 nM |  | 
COc1ccc(OCCN2CCC3CCCC(C2=O)N3S(=O)(=O)c2ccc3[nH]c(=O)sc3c2)cc1OC (centres unmarked) [Compound 5d, 6-(3-(2-(3,4-dimethoxyphenoxy)ethyl)-2-oxo-3,10-diazabicyclo[4.3.1]decan-10-ylsulfonyl)benzo[d]thiazol-2(3H)-one] | 300 ± 20 nM | 0.34 | 1 ± 0.3 nM | 1200 ± 200 nM | 0.24 | 0.22
COc1ccc(OCCOC(=O)C2CCCCN2S(=O)(=O)c2ccc3ncsc3c2)cc1OC (centres unmarked) [Compound 3c, 2-(3,4-dimethoxyphenoxyl)ethyl 1-(benzo[d]thiazol-6-ylsulfonyl)-piperidine-2-carboxylate, reference compound] |  | 0.28 | 100 ± 0.03 nM | > 100000 nM |  | 
